Target: Histone deacetylase 1 (Homo sapiens, UniProt Q13547)
Experiment: Flag Assay: Novel compounds were tested for their ability to inhibit histone deacetylase, subtype 1 (HDAC1) using an in vitro deacetylation assay. The enzyme source for this assay was an epitope-tagged human HDAC1 complex immuno-purified from stably expressing mammalian cells. The substrate consisted of a commercial product containing an acetylated lysine side chain (BIOMOL Research Laboratories, Inc., Plymouth Meeting, Pa.). Upon deacetylation of the substrate by incubation with the purified HDAC1 complex, a fluorophore is produced that is directly proportional to the level of deacetylation.

Chain of Histone deacetylase 1 (Q13547 whole entry): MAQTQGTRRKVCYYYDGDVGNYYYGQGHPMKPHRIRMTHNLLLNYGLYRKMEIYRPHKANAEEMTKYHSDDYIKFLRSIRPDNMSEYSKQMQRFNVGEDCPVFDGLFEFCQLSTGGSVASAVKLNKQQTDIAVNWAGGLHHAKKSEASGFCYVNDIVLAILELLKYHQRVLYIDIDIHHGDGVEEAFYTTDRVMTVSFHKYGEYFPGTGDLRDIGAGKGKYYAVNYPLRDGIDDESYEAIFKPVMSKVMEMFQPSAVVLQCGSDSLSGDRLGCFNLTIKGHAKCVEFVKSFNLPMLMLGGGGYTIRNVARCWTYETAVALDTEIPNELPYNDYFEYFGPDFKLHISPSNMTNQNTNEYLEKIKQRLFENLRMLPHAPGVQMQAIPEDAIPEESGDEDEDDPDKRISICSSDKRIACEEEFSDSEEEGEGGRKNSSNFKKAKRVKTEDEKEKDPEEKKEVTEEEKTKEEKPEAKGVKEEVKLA

IC50: 2500 nM
Structure (SMILES): O=C(Nc1cc(-c2ccccc2)ccc1O)c1ccc(CNCCc2c[nH]cn2)cc1
